Measurements reported in patent US20240226228A1, “ANTIMICROBIAL PEPTOID HAVING IMPROVED SELECTIVITY AND ANTIMICROBIAL COMPOSITION COMPRISING SAME” (priority 2021, published 2024).
In brackets after ≈: the same amount, converted by molar mass. Where two headings read alike, the source gives them in different places. Where a SMILES comes first, the peptide text is derived from it. [ ]: non-standard residue; d: D form. Gly(N(CH2)2(3-indolyl)) = O=C(O)CNCCc1c[nH]c2ccccc12; Nspe = C[C@H](NCC(=O)O)c1ccccc1; Nlys = NCCCCNCC(=O)O

Columns and labels:
[1] = tested on: E. coli ATCC25922
In short: (§1)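 Cation-adjusted MHB2 cultures (18 h, subcultured 4 h) adjusted to 2×10^5–5×10^5 CFU/mL in medium with 0.02% BSA and 0.001% acetic acid.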

[2] = tested on: S. aureus ATCC 25923
In short: as §1

[3] = tested on: red blood cells; assay: Hemolysis assay; assay type: cell-based, Sprague-Dawley mouse
In short: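 Peptoid is mixed with 10% (v/v) PBS-washed erythrocytes (male Sprague-Dawley […], 13 weeks) and held 1 h at 37 °C. Hemolysis is calculated from 540 nm absorbance of the supernatant, with PBS as 0% and Triton X-100 as 100%.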

[4] = Tables 11-13, 24 hours at 37° C., maximum concentration 25 μM
[5] = Table 18, TFA salt vs counter ion-substituted (HCl, AcOH) peptoids

SMILES	MIC E. coli ATCC25922 [1, 4]	MIC S. aureus ATCC 25923 [2, 4]	HC10 [3]	HC50 [3]	Hmax (100 μM) [3]	MIC E. coli ATCC25922 [1, 5]	MIC S. aureus ATCC 25923 [2, 5]
C[C@@H](c1ccccc1)N(CC(N)=O)C(=O)CN(C(=O)CN(CCCCN)C(=O)CN(C(=O)CN(C(=O)CN(CCCCN)C(=O)CN(CCc1c[nH]c2ccccc12)C(=O)CN(CCc1c[nH]c2ccccc12)C(=O)CN(CCCCN)C(=O)CN(C(=O)CN(C(=O)CNCCCCN)[C@@H](C)c1ccccc1)[C@@H](C)c1ccccc1)[C@@H](C)c1ccccc1)[C@@H](C)c1ccccc1)[C@@H](C)c1ccccc1 [Peptoid 13]	6.3 µM (≈ 12 µg/mL)	<0.8 µM	20.2 µM	41.3 µM	96.8 ± 1.6%	–	–
C[C@@H](c1ccccc1)N(CC(N)=O)C(=O)CN(C(=O)CN(CCCCN)C(=O)CN(C(=O)CN(C(=O)CN(CCCCN)C(=O)CN(C(=O)CN(C(=O)CN(CCCCN)C(=O)CN(CCc1c[nH]c2ccccc12)C(=O)CN(CCc1c[nH]c2ccccc12)C(=O)CNCCCCN)[C@@H](C)c1ccccc1)[C@@H](C)c1ccccc1)[C@@H](C)c1ccccc1)[C@@H](C)c1ccccc1)[C@@H](C)c1ccccc1 [Peptoid 14-1]	–	–	19.2 µM	68.2 µM	75.3 ± 5.0%	3.1 µM	3.1 µM
C[C@@H](c1ccccc1)N(CC(N)=O)C(=O)CN(C(=O)CN(CCCCN)C(=O)CN(C(=O)CN(C(=O)CN(CCCCN)C(=O)CN(C(=O)CN(C(=O)CN(CCCCN)C(=O)CN(CCc1c[nH]c2ccccc12)C(=O)CN(CCc1c[nH]c2ccccc12)C(=O)CNCCCCN)[C@@H](C)c1ccccc1)[C@@H](C)c1ccccc1)[C@@H](C)c1ccccc1)[C@@H](C)c1ccccc1)[C@@H](C)c1ccccc1 [Peptoid 14-2]	–	–	14.9 µM	51.8 µM	100.7 ± 17.2%	3.1 µM	1.6 µM
C[C@@H](c1ccccc1)N(CC(N)=O)C(=O)CN(C(=O)CN(CCCCN)C(=O)CN(C(=O)CN(CCc1c[nH]c2ccccc12)C(=O)CN(CCCCN)C(=O)CN(CCc1c[nH]c2ccccc12)C(=O)CN(C(=O)CN(CCCCN)C(=O)CN(C(=O)CN(C(=O)CNCCCCN)[C@@H](C)c1ccccc1)[C@@H](C)c1ccccc1)[C@@H](C)c1ccccc1)[C@@H](C)c1ccccc1)[C@@H](C)c1ccccc1 [Peptoid 15-1]	–	–	50.4 µM	> 100 µM	33.4 ± 9.7%	6.3 µM	3.1 µM
C[C@@H](c1ccccc1)N(CC(N)=O)C(=O)CN(C(=O)CN(CCCCN)C(=O)CN(C(=O)CN(CCc1c[nH]c2ccccc12)C(=O)CN(CCCCN)C(=O)CN(CCc1c[nH]c2ccccc12)C(=O)CN(C(=O)CN(CCCCN)C(=O)CN(C(=O)CN(C(=O)CNCCCCN)[C@@H](C)c1ccccc1)[C@@H](C)c1ccccc1)[C@@H](C)c1ccccc1)[C@@H](C)c1ccccc1)[C@@H](C)c1ccccc1 [Peptoid 15-2]	–	–	39.2 µM	> 100 µM	34.1 ± 1.1%	6.3 µM	3.1 µM
C[C@@H](c1ccccc1)N(CC(=O)N(CCc1c[nH]c2ccccc12)CC(=O)N(CCCCN)CC(=O)N(CC(=O)N(CC(=O)N(CCCCN)CC(=O)N(CC(=O)N(CC(=O)N(CCCCN)CC(=O)N(CC(=O)N(CCc1c[nH]c2ccccc12)CC(N)=O)[C@@H](C)c1ccccc1)[C@@H](C)c1ccccc1)[C@@H](C)c1ccccc1)[C@@H](C)c1ccccc1)[C@@H](C)c1ccccc1)C(=O)CNCCCCN [Peptoid 16] (H-[Nlys][Nspe][Gly(N(CH2)2(3-indolyl))][Nlys][Nspe][Nspe][Nlys][Nspe][Nspe][Nlys][Nspe][Gly(N(CH2)2(3-indolyl))]-NH2)	6.3 µM (≈ 12 µg/mL)	1.6 µM (≈ 3.04 µg/mL)	13.8 µM	25.0 µM	100.3 ± 1.7%	–	–
C[C@@H](c1ccccc1)N(CC(=O)N(CCCCN)CC(=O)N(CC(=O)N(CC(=O)N(CCCCN)CC(=O)N(CC(=O)N(CC(=O)N(CCCCN)CC(=O)N(CC(=O)N(CCc1c[nH]c2ccccc12)CC(N)=O)[C@@H](C)c1ccccc1)[C@@H](C)c1ccccc1)[C@@H](C)c1ccccc1)[C@@H](C)c1ccccc1)[C@@H](C)c1ccccc1)C(=O)CN(CCc1c[nH]c2ccccc12)C(=O)CNCCCCN [Peptoid 17] (H-[Nlys][Gly(N(CH2)2(3-indolyl))][Nspe][Nlys][Nspe][Nspe][Nlys][Nspe][Nspe][Nlys][Nspe][Gly(N(CH2)2(3-indolyl))]-NH2)	6.3 µM (≈ 12 µg/mL)	1.6 µM (≈ 3.04 µg/mL)	18.0 µM	39.7 µM	87.3 ± 6.7%	–	–
C[C@@H](c1ccccc1)N(CC(=O)N(CCCCN)CC(=O)N(CC(=O)N(CC(=O)N(CCCCN)CC(=O)N(CCc1c[nH]c2ccccc12)CC(=O)N(CCc1c[nH]c2ccccc12)CC(N)=O)[C@@H](C)c1ccccc1)[C@@H](C)c1ccccc1)C(=O)CN(C(=O)CN(CCCCN)C(=O)CN(CCc1c[nH]c2ccccc12)C(=O)CN(CCc1c[nH]c2ccccc12)C(=O)CNCCCCN)[C@@H](C)c1ccccc1 [Peptoid 18] (H-[Nlys][Gly(N(CH2)2(3-indolyl))][Gly(N(CH2)2(3-indolyl))][Nlys][Nspe][Nspe][Nlys][Nspe][Nspe][Nlys][Gly(N(CH2)2(3-indolyl))][Gly(N(CH2)2(3-indolyl))]-NH2)	12.5 µM (≈ 24.7 µg/mL)	3.1 µM (≈ 6.12 µg/mL)	14.3 µM	37.8 µM	103.5 ± 4.3%	–	–
C[C@@H](c1ccccc1)N(CC(N)=O)C(=O)CN(C(=O)CN(CCCCN)C(=O)CN(CCc1c[nH]c2ccccc12)C(=O)CN(CCc1c[nH]c2ccccc12)C(=O)CN(CCCCN)C(=O)CN(CCc1c[nH]c2ccccc12)C(=O)CN(CCc1c[nH]c2ccccc12)C(=O)CN(CCCCN)C(=O)CN(C(=O)CN(C(=O)CNCCCCN)[C@@H](C)c1ccccc1)[C@@H](C)c1ccccc1)[C@@H](C)c1ccccc1 [Peptoid 20]	6.3 µM (≈ 12.4 µg/mL)	1.6 µM (≈ 3.16 µg/mL)	8.2 µM	33.9 µM	106.7 ± 3.5%	–	–
C[C@@H](c1ccccc1)N(CC(N)=O)C(=O)CN(C(=O)CN(CCCCN)C(=O)CN(C(=O)CN(C(=O)CN(CCCCN)C(=O)CN(CCc1c[nH]c2ccccc12)C(=O)CN(CCc1c[nH]c2ccccc12)C(=O)CN(CCCCN)C(=O)CN(CCc1c[nH]c2ccccc12)C(=O)CN(CCc1c[nH]c2ccccc12)C(=O)CNCCCCN)[C@@H](C)c1ccccc1)[C@@H](C)c1ccccc1)[C@@H](C)c1ccccc1 [Peptoid 21]	6.3 µM (≈ 12.4 µg/mL)	1.6 µM (≈ 3.16 µg/mL)	23.2 µM	64.9 µM	83.7 ± 2.0%	–	–
C[C@@H](c1ccccc1)N(CC(=O)N(CCc1c[nH]c2ccccc12)CC(=O)N(CCCCN)CC(=O)N(CC(=O)N(CCc1c[nH]c2ccccc12)CC(=O)N(CCCCN)CC(=O)N(CC(=O)N(CCc1c[nH]c2ccccc12)CC(=O)N(CCCCN)CC(=O)N(CC(=O)N(CCc1c[nH]c2ccccc12)CC(N)=O)[C@@H](C)c1ccccc1)[C@@H](C)c1ccccc1)[C@@H](C)c1ccccc1)C(=O)CNCCCCN [Peptoid 22] (H-[Nlys][Nspe][Gly(N(CH2)2(3-indolyl))][Nlys][Nspe][Gly(N(CH2)2(3-indolyl))][Nlys][Nspe][Gly(N(CH2)2(3-indolyl))][Nlys][Nspe][Gly(N(CH2)2(3-indolyl))]-NH2)	12.5 µM (≈ 24.7 µg/mL)	1.6 µM (≈ 3.16 µg/mL)	6.9 µM	19.4 µM	108.6 ± 1.1%	–	–
NCCCCNCC(=O)N(CCc1c[nH]c2ccccc12)CC(=O)N(CCc1c[nH]c2ccccc12)CC(=O)N(CCCCN)CC(=O)N(CCc1c[nH]c2ccccc12)CC(=O)N(CCc1c[nH]c2ccccc12)CC(=O)N(CCCCN)CC(=O)N(CCc1c[nH]c2ccccc12)CC(=O)N(CCc1c[nH]c2ccccc12)CC(=O)N(CCCCN)CC(=O)N(CCc1c[nH]c2ccccc12)CC(=O)N(CCc1c[nH]c2ccccc12)CC(N)=O [Peptoid 23] (H-[Nlys][Gly(N(CH2)2(3-indolyl))][Gly(N(CH2)2(3-indolyl))][Nlys][Gly(N(CH2)2(3-indolyl))][Gly(N(CH2)2(3-indolyl))][Nlys][Gly(N(CH2)2(3-indolyl))][Gly(N(CH2)2(3-indolyl))][Nlys][Gly(N(CH2)2(3-indolyl))][Gly(N(CH2)2(3-indolyl))]-NH2)	25 µM (≈ 53.3 µg/mL)	1.6 µM (≈ 3.41 µg/mL)	17.1 µM	45.2 µM	72.2 ± 0.3%	–	–
C[C@@H](c1ccccc1)N(CC(N)=O)C(=O)CN(CCCCN)C(=O)CN(CCCCN)C(=O)CN(C(=O)CN(C(=O)CN(CCCCN)C(=O)CN(CCc1c[nH]c2ccccc12)C(=O)CN(C(=O)CN(CCCCN)C(=O)CN(C(=O)CN(C(=O)CNCCCCN)[C@@H](C)c1ccccc1)[C@@H](C)c1ccccc1)[C@@H](C)c1ccccc1)[C@@H](C)c1ccccc1)[C@@H](C)c1ccccc1 [Peptoid 24]	>25 µM	6.3 µM (≈ 11.5 µg/mL)	>100/>100 μM	>100/>100 μM	1.5 ± 0.0%	–	–
